Consider 1 compound from US9522260B2, “Apparatus for the controlled release of topical nitric oxide” (University of Windsor, priority 2011, dated 2016).

The structures appear in SMILES notation.

The nature of the series: Thermal and storage stability of AuNP nanocomposites and SNOG. It is filed as physicochemical. As to the method: All of the AuNP-nanocomposites i) to iv) as well as SNOG solutions 1 mM, dissolved in distilled deionized water and containing 100 μM diethylenetriaminepentaacetic acid (DPTA) a metal chelator were stored at 5° C., 25° C. and 55° C. for 1 month. These components were then added to the testing apparatus 90 (FIG. 3) and their NO-release characteristics were compared to fresh samples.
In one simplest and most cost effective manner to prepare an AuNP-nanocomposite, cotton gauze with AuNP (˜10 nm) is prepared by a conventional citrate reduction method.
SNOG solutions (1 mM) containing DPTA (0.1 mm) decomposed ˜5% upon incubation at 40° C. for 7 days. Stability of the SNOG may be increased further by either suspending it in polyethylene glycol or dissolving it in glycerol.

For the compound `N[C@@H](CCC(=O)N[C@@H](CSN=O)C(=O)NCC(=O)O)C(=O)O` [SNOG, S-nitrosoglutathione], where the note is “SNOG solutions (1 mM) containing DPTA (0.1 mm), incubation at 40° C. for 7 days”, the “decomposition of SNOG solution” value is on record as approximately 5%. Where the note is “solid, storage at 40° C. for one week, preliminary experiments”, the “thermal stability of solid SNOG” value is recorded as “thermally stable”.
